Paper PMC3485633 (BMC Pharmacology, 2012)

Experiments:
[1] = target: T1, H1 receptor (Rattus norvegicus, UniProt P31390); assay: [3H]-Pyrilamine radioligand binding assay, rat hypothalamus membrane homogenate; design: species or system Sprague Dawley rats; conditions: read-out: Ki ± SD H1
T1 construct: The prefrontal cortex, striatum and hypothalamus were homogenized in about 6 volumes of ice-cold buffer; from tissue; host or cells: rat hypothalamus membrane homogenate

[2] = target: T2, D2 receptor (Rattus norvegicus, UniProt P61169); assay: [3H]-Spiperone radioligand binding assay, rat striatum membrane homogenate; design: species or system Sprague Dawley rats; conditions: read-out: Ki ± SD D2
T2 construct: The prefrontal cortex, striatum and hypothalamus were homogenized in about 6 volumes of ice-cold buffer; from tissue; host or cells: rat striatum membrane homogenate
T2 sequence (P61169 whole entry): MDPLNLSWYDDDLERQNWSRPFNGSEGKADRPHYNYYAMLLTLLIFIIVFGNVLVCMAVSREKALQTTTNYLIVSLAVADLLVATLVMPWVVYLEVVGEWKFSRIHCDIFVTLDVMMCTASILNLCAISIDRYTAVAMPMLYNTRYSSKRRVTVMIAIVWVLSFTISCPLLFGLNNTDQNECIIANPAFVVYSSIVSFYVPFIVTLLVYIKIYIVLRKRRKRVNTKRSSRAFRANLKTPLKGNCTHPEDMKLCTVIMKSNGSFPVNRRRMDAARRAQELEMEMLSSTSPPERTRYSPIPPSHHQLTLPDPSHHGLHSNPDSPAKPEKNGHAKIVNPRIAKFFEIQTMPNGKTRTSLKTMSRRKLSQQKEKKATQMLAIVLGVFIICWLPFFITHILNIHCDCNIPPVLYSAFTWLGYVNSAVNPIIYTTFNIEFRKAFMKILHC

[3] = target: T3, 5HT2A receptor (Rattus norvegicus, UniProt P14842); assay: [3H]-Ketanserine radioligand binding assay, rat prefrontal cortex membrane homogenate; design: species or system Sprague Dawley rats; conditions: for Ki: read-out: Ki ± SD 5HT2A; for pKi ratio 5HT2A/D2: ratio of pKi at 5HT2A to pKi at D2, rat tissue homogenate
T3 construct: The prefrontal cortex, striatum and hypothalamus were homogenized in about 6 volumes of ice-cold buffer; from tissue; host or cells: rat prefrontal cortex membrane homogenate
T3 sequence (P14842 whole entry): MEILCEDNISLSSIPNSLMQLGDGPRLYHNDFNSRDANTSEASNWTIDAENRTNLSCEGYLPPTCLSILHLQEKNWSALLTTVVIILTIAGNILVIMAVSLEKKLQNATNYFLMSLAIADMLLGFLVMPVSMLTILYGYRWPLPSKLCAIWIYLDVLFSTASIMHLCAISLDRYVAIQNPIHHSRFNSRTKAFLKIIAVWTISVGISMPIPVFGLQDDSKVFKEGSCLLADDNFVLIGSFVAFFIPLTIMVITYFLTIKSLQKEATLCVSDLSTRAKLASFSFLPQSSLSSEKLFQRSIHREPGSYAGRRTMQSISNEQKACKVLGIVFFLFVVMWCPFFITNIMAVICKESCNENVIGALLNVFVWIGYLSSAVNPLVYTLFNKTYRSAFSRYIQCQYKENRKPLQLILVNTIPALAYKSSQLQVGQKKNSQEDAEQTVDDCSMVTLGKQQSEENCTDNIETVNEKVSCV

[4] = design: method as in PMID 11488257, PMID 22103329; conditions: patients treated with these medications; cited from earlier work
[5] = target: D2 receptor; conditions: read-out: Ki D2 receptor; cited from earlier work

T1 sequence (P31390 whole entry): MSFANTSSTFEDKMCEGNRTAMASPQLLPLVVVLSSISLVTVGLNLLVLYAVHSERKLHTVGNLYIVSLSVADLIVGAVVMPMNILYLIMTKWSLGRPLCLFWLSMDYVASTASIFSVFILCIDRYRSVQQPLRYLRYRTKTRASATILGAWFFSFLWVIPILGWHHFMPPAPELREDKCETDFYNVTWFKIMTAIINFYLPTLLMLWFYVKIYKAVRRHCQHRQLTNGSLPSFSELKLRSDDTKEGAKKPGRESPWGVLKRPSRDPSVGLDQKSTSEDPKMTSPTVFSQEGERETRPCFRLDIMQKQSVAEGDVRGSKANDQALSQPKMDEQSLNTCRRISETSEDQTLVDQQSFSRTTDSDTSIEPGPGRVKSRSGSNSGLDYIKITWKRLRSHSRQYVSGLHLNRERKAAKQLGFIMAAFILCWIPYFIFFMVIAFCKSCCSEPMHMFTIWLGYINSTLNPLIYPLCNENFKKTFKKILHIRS

| SMILES | Ki [1] [nM] | Ki [2] [nM] | Ki [3] [nM] | pKi ratio 5HT2A/D2 [3] | weight change in treated patients [4] | Ki [5] [nM] |
| --- | --- | --- | --- | --- | --- | --- |
| Cc1cc2c(s1)Nc1ccccc1N=C2N1CCCN(C)CC1 [Compound 8a, 2-methyl-4-(4′-methyl-1′,4′-diazepan-1′-yl)-10H-benzo[b]thieno[2,3-e] [1,4]diazepine] | 33.5 ± 7.39 | 3940 ± 437 | 787 ± 29.8 | – | – | – |
| CCc1cc2c(s1)Nc1ccccc1N=C2N1CCCN(C)CC1 [Compound 8b, 2-ethyl-4-(4′-methyl-1′,4′-diazepan-1′-yl)-10H-benzo[b]thieno[2,3-e] [1,4]diazepine] | 13.6 ± 2.68 | 791 ± 83.2 | 81.2 ± 2.43 | 1.16 | – | – |
| CCc1cc2c(s1)Nc1ccccc1N=C2N1CCN(C)CC1 [Compound 8c, 2-ethyl-4-(4′-methylpiperazin-1′-yl)-10Hbenzo[b]thieno[2,3-e][1,4]diazepine] | 1.95 ± 0.33 | 54.5 ± 12.1 | 3.7 ± 0.74 | 1.16 | – | – |
| Clc1ccc2c(c1)C(N1CCNCC1)=Nc1ccccc1O2 [amoxapine] | – | – | – | – | neither weight gain nor weight loss | – |
| CN1CCN(C2=Nc3ccccc3Oc3ccc(Cl)cc32)CC1 [loxapine] | – | – | – | – | neither weight gain nor weight loss | – |
| CCN1CCC[C@H]1CNC(=O)c1c(OC)ccc(Br)c1OC [remoxipride] | – | – | – | – | – | 800 |
